Biological target: Shp2 (Homo sapiens (Human), UniProt Q06124)
Experiment: PTP activity assay (DiFMUP substrate) with GST-Shp2
Assay type: biochemical
Settings: for IC50: Table II, Shp2; for % PTP activity: at 20 μM
Excerpt: All constructs were verified by DNA sequencing.
Recombinant DEP1 was from Abcam.

Shp2, sequence (Q06124 205-593): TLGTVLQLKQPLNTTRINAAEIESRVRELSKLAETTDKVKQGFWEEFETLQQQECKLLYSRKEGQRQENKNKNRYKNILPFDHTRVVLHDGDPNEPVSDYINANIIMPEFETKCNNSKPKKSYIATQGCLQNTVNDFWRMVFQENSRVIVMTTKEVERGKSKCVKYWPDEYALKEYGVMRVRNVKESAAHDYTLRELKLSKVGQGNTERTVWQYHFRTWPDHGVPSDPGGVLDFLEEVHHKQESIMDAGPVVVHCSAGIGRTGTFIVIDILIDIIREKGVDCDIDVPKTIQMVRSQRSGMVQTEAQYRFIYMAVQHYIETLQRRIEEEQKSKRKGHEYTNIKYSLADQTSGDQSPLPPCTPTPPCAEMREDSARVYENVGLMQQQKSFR

| SMILES | IC50 | % PTP activity |
| --- | --- | --- |
| O=C1Nc2ccc(C(=O)O)cc2/C1=N/Nc1ccccc1Cl [RPM270] | 33 to 100 µM | 45 ± 18% (2) At 20 μM |
| O=C1Nc2ccc(C(=O)O)cc2/C1=N/Nc1ccccc1 [RPM272, 3-(Phenylhydrazono)-2-oxo-2,3-dihydro-1H-indole-5-carboxylic acid] |  | 43 ± 4% at 20 μM |
| CC(C)NS(=O)(=O)c1ccc2c(c1)/C(=N/Nc1ccccc1)C(=O)N2 [RPM275, 3-(Phenylhydrazono)-2-oxo-2,3-dihydro-1H-indole-5-sulfonic acid isopropylamide] |  | 58.53% (1) at 20 μM |
| CC(C)NS(=O)(=O)c1ccc2c(c1)/C(=N/Nc1ccccc1C(N)=O)C(=O)N2 [RPM283, 2-[N′-(5-Isopropylsulfamoyl-2-oxo-1,2-dihydro-indol-3-ylidene)hydrazino]benzamide] |  | 52 ± 7% (2) At 20 μM |
| CC(C)NS(=O)(=O)c1ccc2c(c1)/C(=N/Nc1ccccc1C(=O)NCCN(C)C)C(=O)N2 [RPM284, N-(2-Dimethylaminoethyl)-2-[N′-(5-isopropylsulfamoyl-2-oxo-1,2-dihydro-indol-3-ylidene)hydrazino]benzamide] |  | 47 ± 6% (2) At 20 μM |
| COCCNC(=O)c1ccccc1N/N=C1\C(=O)Nc2ccc(S(=O)(=O)NC(C)C)cc21 [RPM285, 2-[N′-(5-Isopropylsulfamoyl-2-oxo-1,2-dihydro-indol-3-ylidene)-hydrazino]-N-(2-methoxyethyl)benzamide] |  | 51 ± 7% (2) At 20 μM |
| CC(C)NS(=O)(=O)c1ccc2c(c1)/C(=N/Nc1ccccc1C(=O)NCc1ccccc1)C(=O)N2 [RPM287, N-Benzyl-2-[N′-(5-isopropylsulfamoyl-2-oxo-1,2-dihydro-indol-3-ylidene)hydrazino]benzamide] |  | 48 ± 10% (2) At 20 μM |
| CCOC(=O)c1ccc(N/C=C2\C(=O)Nc3ccc(S(=O)(=O)NC(C)C)cc32)cc1 [RPM288, 4-[(5-Isopropylsulfamoyl-2-oxo-1,2-dihydro-indol-3-ylidenemethyl)amino]benzoic acid ethyl ester] |  | 30 ± 2% (2) at 20 μM |
| CC(C)NS(=O)(=O)c1ccc2c(c1)/C(=N/Nc1ccccc1C(=O)NCc1cccnc1)C(=O)N2 [RPM290, 2-[N′-(5-Isopropylsulfamoyl-2-oxo-1,2-dihydro-indol-3-ylidene)hydrazino]-N-pyridin-3-ylmethylbenzamide] | 33 to 100 µM | 46 ± 2% (2) At 20 μM |
| CC(C)NS(=O)(=O)c1ccc2c(c1)/C(=N/Nc1ccccc1C(=O)NCc1ccco1)C(=O)N2 [RPM292, N-Furan-2-ylmethyl-2-[N′-(5-isopropylsulfamoyl-2-oxo-1,2-dihydro-indol-3-ylidene)hydrazino]benzamide] | 33 to 100 µM | 47 ± 7% (20 At 20 μM |
| CC(C)NS(=O)(=O)c1ccc2c(c1)/C(=N/Nc1ccccc1C(=O)NCCN1CCOCC1)C(=O)N2 [RPM293, 2-[N′-(5-Isopropylsulfamoyl-2-oxo-1,2-dihydro-indol-3-ylidene)hydrazino]-N-(2-morpholin-4-yl-ethyl)benzamide] |  | 49 ± 6% (2) At 20 μM |
| CC(C)NS(=O)(=O)c1ccc2c(c1)/C(=N/Nc1ccccc1C(=O)N(C)C)C(=O)N2 [RPM294, 2-[N′-(5-Isopropylsulfamoyl-2-oxo-1,2-dihydro-indol-3-ylidene)hydrazino]-N,N-dimethylbenzamide] |  | 48 ± 0% (2) At 20 μM |
| CNC(=O)c1ccccc1N/N=C1\C(=O)Nc2ccc(S(=O)(=O)NC(C)C)cc21 [RPM295, 2-[N′-(5-Isopropylsulfamoyl-2-oxo-1,2-dihydro-indol-3-ylidene)hydrazino]-N-methylbenzamide] |  | 43 ± 2% (2) At 20 μM |
| CCNC(=O)c1ccccc1N/N=C1\C(=O)Nc2ccc(S(=O)(=O)NC(C)C)cc21 [RPM296, N-Ethyl-2-[N′-(5-isopropylsulfamoyl-2-oxo-1,2-dihydro-indol-3-ylidene)hydrazino]benzamide] |  | 48 ± 2% (2) At 20 μM |

Reference: patent US8987474B2 (University of South Florida, priority 2006, dated 2015)
